Test results: US7732609B2, “5-(arylsulfonyl)-pyrazolopiperidines” (Elan Pharmaceuticals, Inc., priority 2005, dated 2010)

Target: T1, gamma-secretase (Homo sapiens, UniProt P49768)
T1 construct: The assay used a partially purified extract of IMR-32 cell membranes as the gamma-secretase enzyme preparation; endogenous in cells; host or cells: IMR-32 cell membranes (partially purified extract)
Assay: Gamma-secretase APP enzyme assay (MBP-C125 Swe cleavage at Aβ40 site, sandwich ELISA)
Type: biochemical
Conditions: IMR-32 cell membrane extract as enzyme; MBP-C125swe substrate; 2 h at 37° C; read-out: γAPP
Description: The gamma-secretase APP enzyme assay was designed to measure the specific proteolytic cleavage of an APP substrate (MBP-C125 Swe fusion protein) at the Aβ40 site. The assay used a partially purified extract of IMR-32 cell membranes as the gamma-secretase enzyme preparation and a recombinant fusion protein containing the C-terminal 125 amino acids of the Swedish variant of the APP (MBP-C125swe) as the substrate. This assay involved two steps beginning with the enzymatic reaction generating a cleavage product that was captured with an immobilized antibody specific for the neo-epitope Aβ40 site. The captured cleavage product was then detected in a sandwich ELISA assay with a biotinylated reporter antibody that is specific to Aβ (17-28). Streptavidin-linked alkaline phosphatase was then added that would generate a fluorescent signal proportional to the amount of cleavage product. This assay was used to discover small molecule inhibitors of gamma-secretase.
Briefly, a 149 mg/ml solution of BIGCHAP detergent was made with water at 42° C. and then rotated for 30 minutes at the same temperature. This warmed solution of BigCHAPS(N,N-Bis(3-D-gluconamidopropyl)cholamide) detergent was used to dissolve Brain Extract Type-V (lipid containing a minimum of 40% phosphatidylethanolamine) from Sigma (St. Louis, Mo.) to a concentration of 8 mg/ml. This solution containing BigCHAPS and lipid at 8 mg/ml is then diluted to 0.53 mg/ml lipid with a pre-warmed solution of Hepes and sodium chloride. This final solution containing Hepes buffer, sodium chloride, BigCHAPS detergent and lipid is used to create working solutions of both gamma-secretase (25 Units) and the MBP-C125 substrate (0.05 mg/ml).
Gamma-secretase was then added to a 96-well micro-titre plate and then incubated with various concentrations of inhibitor for 30 minutes at 37° C. MBPC125 substrate was then added to initiate the reaction that would run for two hours at 37° C. The reaction was quenched with the addition of SDS to a final concentration of 0.1% and then 100 μl of the reaction mixture was transferred to a capture ELISA plate and incubated overnight at 4° C. Detection of the cleavage product was performed using a standard sandwich ELISA assay and quantified using a six point standard curve.

Row | Compound | IC50
1 | CC[C@H]1Cc2[nH]ncc2[C@@H](COC(=O)N(C)C)N1S(=O)(=O)c1ccc(Cl)cc1 [((4S,6S)-5-(4-chlorophenylsulfonyl)-6-ethyl-4,5,6,7-tetrahydro-1H-pyrazolo[4,3-c]pyridin-4-yl)methyl dimethylcarbamate] | 150 to 300 nM
2 | CN(C)C(=O)OC[C@@H]1c2cnn(C(=O)N(C)C)c2CCN1S(=O)(=O)c1ccc(Cl)cc1 [(S)-(5-(4-chlorophenylsulfonyl)-1-(dimethylcarbamoyl)-4,5,6,7-tetrahydro-1H-pyrazolo[4,3-c]pyridin-4-yl)methyl dimethylcarbamate] | 150 to 300 nM
3 | CN(C)C(=O)OC[C@@H]1c2cn[nH]c2CCN1S(=O)(=O)c1ccc(Cl)cc1 [(S)-(5-(4-chlorophenylsulfonyl)-4,5,6,7-tetrahydro-1H-pyrazolo[4,3-c]pyridin-4-yl)methyl dimethylcarbamate] | 150 to 300 nM
4 | (4S,6R)-diethyl 5-(4-chlorophenylsulfonyl)-4,5,6,7-tetrahydro-1H-pyrazolo[4,3-c]pyridine-4,6-dicarboxylate | 50 to 150 nM

Further lines, results first:

Row | IC50 | Compound
5 | 150 to 300 nM | O=S(=O)(c1ccc(Cl)cc1)N1[C@@H](CO)Cc2[nH]ncc2[C@H]1CO [((4S,6R)-5-(4-chlorophenylsulfonyl)-4,5,6,7-tetrahydro-1H-pyrazolo[4,3-c]pyridine-4,6-diyl)dimethanol]
6 | 150 to 300 nM | CC[C@@H]1Cc2[nH]ncc2[C@@H](COC(=O)N(C)C)N1S(=O)(=O)c1ccc(Cl)cc1 [((4S,6R)-5-(4-chlorophenylsulfonyl)-6-ethyl-4,5,6,7-tetrahydro-1H-pyrazolo[4,3-c]pyridin-4-yl)methyl dimethylcarbamate]
7 | < 50 nM | CC[C@H]1c2cn[nH]c2C[C@@H](COC(=O)N(C)C)N1S(=O)(=O)c1ccc(Cl)cc1 [((4S,6S)-5-(4-chlorophenylsulfonyl)-4-ethyl-4,5,6,7-tetrahydro-1H-pyrazolo[4,3-c]pyridin-6-yl)methyl dimethylcarbamate]
8 | < 50 nM | CCOC(=O)C1c2cn[nH]c2CC(CC)N1S(=O)(=O)c1ccc(Cl)cc1 (centres unmarked) [ethyl 5-(4-chlorophenylsulfonyl)-6-ethyl-4,5,6,7-tetrahydro-1H-pyrazolo[4,3-c]pyridine-4-carboxylate]
